Values of other authors in article PMC2962921 (Chembiochem : a European journal of chemical biology, 2008).
Like-named read-outs stand apart in the source and are kept apart here.

Molecular target: Gαi1*GDP

Sequence	Kd (binding to heterotrimeric inhibitory G protein Gαi1*GDP) [nM]	Kd (R6A peptide, competitor in the equilibrium competition) [nM]
DKLYWWEFL	200	–
MSQTKRLDDQLYWWEYL [R6A]	–	60
